“Also recorded” adds a separate entry of the source.
Assay: Pharmacological function of triterpenes (earlier experiments and reports)
Settings: inventors' experiments, no data given

CC1(C)CC[C@]2(C(=O)O)CC[C@]3(C)C(=CC[C@@H]4[C@@]5(C)CC[C@H](O)C(C)(C)[C@@H]5CC[C@]43C)[C@@H]2C1 [oleanolic acid, Oleanolic acid]
Pharmacological function of oleanolic acid from sugar beet: antibiosis to a tumor and hepatitis; also recorded: cariostatic (insoluble glucanynthesis inhibition)
